These results are taken from paper PMC7612441 (The Febs Journal, 2021).

The target in test [1] is T1, NUDT9 (Homo sapiens, UniProt Q9BW91).
T1 sequence (Q9BW91 59-350): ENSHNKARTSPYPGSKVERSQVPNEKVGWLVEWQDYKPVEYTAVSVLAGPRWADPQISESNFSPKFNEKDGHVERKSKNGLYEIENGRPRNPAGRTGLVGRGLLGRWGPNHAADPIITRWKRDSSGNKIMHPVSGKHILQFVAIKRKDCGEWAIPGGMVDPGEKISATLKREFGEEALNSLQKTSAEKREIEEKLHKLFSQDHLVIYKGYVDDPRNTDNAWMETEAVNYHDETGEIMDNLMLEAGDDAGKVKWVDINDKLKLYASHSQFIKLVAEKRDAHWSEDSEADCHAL
The experiment in a line: isothermal titration calorimetry, one-site fit. The settings on record: Ca2+ (5 mM CaCl2) as cofactor, no hydrolysis; 20 mM HEPES pH 7.5, 150 mM NaCl, 20 °C. The format is binding. A general note: In ITC the heat of successive injections is recorded.

The target of test [2] is T2, NUDT9trC RIL (Homo sapiens, UniProt Q9BW91, E230I/F231L).
T2 sequence (Q9BW91 59-339 E230I/F231L): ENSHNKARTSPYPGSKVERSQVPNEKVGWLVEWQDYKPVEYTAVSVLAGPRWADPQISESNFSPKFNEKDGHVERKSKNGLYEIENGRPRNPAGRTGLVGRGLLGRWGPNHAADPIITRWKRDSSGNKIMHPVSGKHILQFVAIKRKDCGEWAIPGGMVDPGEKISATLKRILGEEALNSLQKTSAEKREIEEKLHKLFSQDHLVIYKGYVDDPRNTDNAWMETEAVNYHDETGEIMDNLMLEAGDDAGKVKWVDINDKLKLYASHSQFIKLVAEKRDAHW
The experiment in a line: isothermal titration calorimetry, one-site fit. The format is binding. The following applies: Mg2+ (5 mM MgCl2) as cofactor; 20 mM HEPES pH 7.5, 150 mM NaCl, 20 °C; catalytically inactive mutant.

As to `Nc1ncnc2c1ncn2[C@H]1C[C@H](O)[C@@H](COP(=O)(O)OP(=O)(O)OC[C@H]2OC(O)[C@H](O)[C@@H]2O)O1` (stereo partly shown) [2′‐deoxy‐ADPR], the dissociation constant (Kd) in test [1] worked out at 0.009 ± 0.002 µM; in test [2], 0.012 ± 0.007 µM.

On to `Nc1ncnc2c1ncn2[C@@H]1O[C@H](COP(=O)(O)OP(=O)(O)OC[C@H]2OC(O)[C@H](O)[C@@H]2O)[C@@H](O)[C@H]1O` (stereo partly shown) [ADPR], for which the Kd in test [1] turned out to be 0.012 ± 0.004 µM; in test [2], 0.016 ± 0.004 µM.

Broadly, the Kd is a measure of binding affinity in units of concentration.
